Converted amounts (≈) assume the structure as drawn. Starred links: 1 amine or outer side, 2 acyl side, 3 side chain; linkers in the order of their positions; H or OH if unused. Positions of bridges follow the written chain, without caps; N, C: chain ends. Non-standard residues stand in square brackets, D forms with d. Residues, ends and D or L forms follow the SMILES beside them. ξ: configuration not given here. ξαMeNle(6-ylidene) = CC(CCCC=[*:3])(N[*:1])C(=O)[*:2]; R8 = C=CCCCCCC[C@@](C)(N)C(=O)O; S5 = C=CCCC[C@](C)(N)C(=O)O; ξV = CC(C)C(N)C(=O)O
What was measured:
Klebsiella pneumoniae = test: Antimicrobial activity against Klebsiella pneumoniae ATCC 13883 assessed as growth inhibition measured after 8 hrs incubation by standard broth dilution assay; type: functional
Staphylococcus aureus = test: Antimicrobial activity against methicillin-resistant Staphylococcus aureus ATCC 43300 assessed as growth inhibition measured after 8 hrs incubation by standard broth dilution assay; type: functional
Pseudomonas aeruginosa = test: Antimicrobial activity against Pseudomonas aeruginosa ATCC 27853 assessed as growth inhibition measured after 8 hrs incubation by standard broth dilution assay; type: functional
Streptococcus pneumoniae = test: Antimicrobial activity against Streptococcus pneumoniae ATCC 49619 assessed as growth inhibition measured after 8 hrs incubation by standard broth dilution assay; type: functional
[1] = Hemolytic activity in BALB/c mouse red blood cells assessed as hemolysis incubated for 1 hrs; type: toxicity, cell-based, Erythrocyte; conditions: read-out: HD50

SMILES | MIC (Klebsiella pneumoniae) [mg/L] | MIC (Staphylococcus aureus) [mg/L] | MIC (Pseudomonas aeruginosa) [mg/L] | MIC (Streptococcus pneumoniae) [mg/L] | HC50 at 1 h [1] [µg/mL]
CC(=O)N[C@@H](CCCCN)C(=O)N[C@@H](CCCCN)C(=O)N[C@@H](CCCNC(=N)N)C(=O)N[C@H](C(=O)N[C@@H](Cc1c[nH]c2ccccc12)C(=O)N[C@@H](CCCCN)C(=O)N[C@@H](CCCNC(=N)N)C(=O)N[C@@]1(C)CCC/C=C\CCC[C@@](C)(C(=O)N[C@@H](CCCCN)C(=O)N[C@@]2(C)CCC/C=C\CCC[C@@](C)(C(=O)N[C@@H](CC(C)C)C(=O)N[C@@H](CCCCN)C(=O)N[C@@H](CCCCN)C(=O)N3CCC[C@H]3C(=O)N[C@H](C(=O)N[C@@H](CCCNC(=N)N)C(N)=O)C(C)C)NC(=O)[C@H](CCCNC(=N)N)NC(=O)[C@H](Cc3c[nH]c4ccccc34)NC(=O)[C@H](Cc3ccc(O)cc3)NC2=O)NC(=O)[C@H](CC(C)C)NC(=O)[C@H](CCCCN)NC(=O)[C@H](Cc2ccccc2)NC1=O)C(C)C (Ac-KKRVWKR[S5]FKL[S5]K[S5]YWR[S5]LKKPVR-NH2; staple (Z) 8-12, 14-18) | 4.6 (≈ 1.4 µM) | 4.9 (≈ 1.49 µM) | 5 (≈ 1.52 µM) | 2.4 (≈ 0.73 µM) | 15.3
CC(=O)N[C@@H](CCCCN)C(=O)N[C@@H](CCCCN)C(=O)N[C@@H](CCCNC(=N)N)C(=O)N[C@H](C(=O)N[C@]1(C)CCCCCC/C=C\CCC[C@@](C)(C(=O)N[C@@H](CCCCN)C(=O)N[C@@]2(C)CCC/C=C\CCCC(C)(C(=O)N[C@@H](CC(C)C)C(=O)N[C@@H](CCCCN)C(=O)N[C@@H](CCCCN)C(=O)N3CCC[C@H]3C(=O)N[C@H](C(=O)N[C@@H](CCCNC(=N)N)C(N)=O)C(C)C)NC(=O)[C@H](CCCNC(=N)N)NC(=O)[C@H](Cc3c[nH]c4ccccc34)NC(=O)[C@H](Cc3ccc(O)cc3)NC2=O)NC(=O)[C@H](CC(C)C)NC(=O)[C@H](CCCCN)NC(=O)[C@H](Cc2ccccc2)NC(=O)C(C(C)C)NC(=O)[C@H](CCCNC(=N)N)NC(=O)[C@H](CCCCN)NC1=O)C(C)C (stereo not given in full) (Ac-KKRV[R8]KR[ξV]FKL[S5]K[S5]YWR[ξαMeNle(6-ylidene)]LKKPVR-NH2; staple (Z) 5-12, 14-18) | 4.9 (≈ 1.51 µM) | 4.9 (≈ 1.51 µM) | 5 (≈ 1.54 µM) | 2.4 (≈ 0.74 µM) | 12.7
CC(=O)N[C@@H](CCCCN)C(=O)N[C@@H](CCCCN)C(=O)N[C@@H](CCCNC(=N)N)C(=O)N[C@H](C(=O)N[C@@]1(C)CCC/C=C\CCC[C@@](C)(C(=O)N[C@@H](CCCCN)C(=O)N[C@@H](CC(C)C)C(=O)N[C@@H](CC(C)C)C(=O)N[C@@H](CCCCN)C(=O)N[C@@]2(C)CCC/C=C\CCC[C@@](C)(C(=O)N[C@@H](CC(C)C)C(=O)N[C@@H](CCCCN)C(=O)N[C@@H](CCCCN)C(=O)N3CCC[C@H]3C(=O)N[C@H](C(=O)N[C@@H](CCCNC(=N)N)C(N)=O)C(C)C)NC(=O)[C@H](CCCNC(=N)N)NC(=O)[C@H](Cc3c[nH]c4ccccc34)NC(=O)[C@H](Cc3ccc(O)cc3)NC2=O)NC(=O)[C@H](C(C)C)NC(=O)[C@H](CCCNC(=N)N)NC(=O)[C@H](CCCCN)NC1=O)C(C)C (Ac-KKRV[S5]KRV[S5]KLLK[S5]YWR[S5]LKKPVR-NH2; staple (Z) 5-9, 14-18) | 4.9 (≈ 1.55 µM) | 4.9 (≈ 1.55 µM) | 5 (≈ 1.58 µM) | 4.7 (≈ 1.48 µM) | 13.2
CC(=O)N[C@@H](CCCCN)C(=O)N[C@@H](CCCCN)C(=O)N[C@@H](CCCNC(=N)N)C(=O)N[C@@]1(C)CCC/C=C\CCC[C@@](C)(C(=O)N[C@@H](Cc2ccccc2)C(=O)N[C@@H](CCCCN)C(=O)N[C@@H](CC(C)C)C(=O)N[C@@H](CC(C)C)C(=O)N[C@@H](CCCCN)C(=O)N[C@@]2(C)CCC/C=C\CCC[C@@](C)(C(=O)N[C@@H](CC(C)C)C(=O)N[C@@H](CCCCN)C(=O)N[C@@H](CCCCN)C(=O)N3CCC[C@H]3C(=O)N[C@H](C(=O)N[C@@H](CCCNC(=N)N)C(N)=O)C(C)C)NC(=O)[C@H](CCCNC(=N)N)NC(=O)[C@H](Cc3c[nH]c4ccccc34)NC(=O)[C@H](Cc3ccc(O)cc3)NC2=O)NC(=O)[C@H](CCCNC(=N)N)NC(=O)[C@H](CCCCN)NC(=O)[C@H](Cc2c[nH]c3ccccc23)NC1=O (Ac-KKR[S5]WKR[S5]FKLLK[S5]YWR[S5]LKKPVR-NH2; staple (Z) 4-8, 14-18) | 4.9 (≈ 1.48 µM) | 4.9 (≈ 1.48 µM) | 5 (≈ 1.52 µM) | 4.7 (≈ 1.42 µM) | 10.5
CC(=O)N[C@@H](CC(C)C)C(=O)N[C@@H](CCCCN)C(=O)N[C@@H](CCCNC(=N)N)C(=O)N[C@@H](CCCCN)C(=O)N[C@@H](Cc1c[nH]c2ccccc12)C(=O)N[C@@H](CCCCN)C(=O)N[C@@H](CCCNC(=N)N)C(=O)N[C@H](C(=O)N[C@@H](Cc1ccccc1)C(=O)N[C@@H](CCCCN)C(=O)N[C@@H](CC(C)C)C(=O)N[C@@H](CC(C)C)C(=O)N[C@@H](CCCCN)C(=O)N[C@@]1(C)CCC/C=C\CCC[C@@](C)(C(=O)N[C@@H](CC(C)C)C(=O)N[C@@H](CCCCN)C(=O)N[C@@H](CCCCN)C(=O)N2CCC[C@H]2C(=O)N[C@H](C(=O)N[C@@H](CCCNC(=N)N)C(N)=O)C(C)C)NC(=O)[C@H](CCCNC(=N)N)NC(=O)[C@H](Cc2c[nH]c3ccccc23)NC(=O)[C@H](Cc2ccc(O)cc2)NC1=O)C(C)C (Ac-LKRKWKRVFKLLK[S5]YWR[S5]LKKPVR-NH2; staple (Z) 14-18) | 10.1 (≈ 3.1 µM) | 4.9 (≈ 1.5 µM) | 5 (≈ 1.53 µM) | 2.4 (≈ 0.736 µM) | 9.9
CC(=O)N[C@@H](CC(C)C)C(=O)N[C@@H](CCCCN)C(=O)N[C@@H](CCCNC(=N)N)C(=O)N[C@H](C(=O)N[C@@H](CCCCN)C(=O)N[C@@H](CCCCN)C(=O)N[C@@H](CCCNC(=N)N)C(=O)N[C@H](C(=O)N[C@@H](Cc1ccccc1)C(=O)N[C@@H](CCCCN)C(=O)N[C@@H](CC(C)C)C(=O)N[C@@H](CC(C)C)C(=O)N[C@@H](CCCCN)C(=O)N[C@@]1(C)CCC/C=C\CCC[C@@](C)(C(=O)N[C@@H](CC(C)C)C(=O)N[C@@H](CCCCN)C(=O)N[C@@H](CCCCN)C(=O)N2CCC[C@H]2C(=O)N[C@H](C(=O)N[C@@H](CCCNC(=N)N)C(N)=O)C(C)C)NC(=O)[C@H](CCCNC(=N)N)NC(=O)[C@H](Cc2c[nH]c3ccccc23)NC(=O)[C@H](Cc2ccc(O)cc2)NC1=O)C(C)C)C(C)C (Ac-LKRVKKRVFKLLK[S5]YWR[S5]LKKPVR-NH2; staple (Z) 14-18) | 10.1 (≈ 3.18 µM) | 19 (≈ 5.98 µM) | 5 (≈ 1.57 µM) | 4.7 (≈ 1.48 µM) | 15.3
CC(=O)N[C@@H](CC(C)C)C(=O)N[C@@H](CCCCN)C(=O)N[C@@H](CCCNC(=N)N)C(=O)N[C@H](C(=O)N[C@@H](Cc1c[nH]c2ccccc12)C(=O)N[C@@H](CCCCN)C(=O)N[C@@H](CCCNC(=N)N)C(=O)N[C@@H](CCCCN)C(=O)N[C@@H](Cc1ccccc1)C(=O)N[C@@H](CCCCN)C(=O)N[C@@H](CC(C)C)C(=O)N[C@@H](CC(C)C)C(=O)N[C@@H](CCCCN)C(=O)N[C@@]1(C)CCC/C=C\CCC[C@@](C)(C(=O)N[C@@H](CC(C)C)C(=O)N[C@@H](CCCCN)C(=O)N[C@@H](CCCCN)C(=O)N2CCC[C@H]2C(=O)N[C@H](C(=O)N[C@@H](CCCNC(=N)N)C(N)=O)C(C)C)NC(=O)[C@H](CCCNC(=N)N)NC(=O)[C@H](Cc2c[nH]c3ccccc23)NC(=O)[C@H](Cc2ccc(O)cc2)NC1=O)C(C)C (Ac-LKRVWKRKFKLLK[S5]YWR[S5]LKKPVR-NH2; staple (Z) 14-18) | 10.1 (≈ 3.1 µM) | 10.1 (≈ 3.1 µM) | 5 (≈ 1.53 µM) | 2.4 (≈ 0.736 µM) | 32.3
CC(=O)N[C@@H](CC(C)C)C(=O)N[C@@H](CCCCN)C(=O)N[C@@H](CCCNC(=N)N)C(=O)N[C@H](C(=O)N[C@@H](Cc1c[nH]c2ccccc12)C(=O)N[C@@H](CCCCN)C(=O)N[C@@H](CCCNC(=N)N)C(=O)N[C@H](C(=O)N[C@@H](Cc1ccccc1)C(=O)N[C@@H](CCCCN)C(=O)N[C@@H](CCCCN)C(=O)N[C@@H](CC(C)C)C(=O)N[C@@H](CCCCN)C(=O)N[C@@]1(C)CCC/C=C\CCC[C@@](C)(C(=O)N[C@@H](CC(C)C)C(=O)N[C@@H](CCCCN)C(=O)N[C@@H](CCCCN)C(=O)N2CCC[C@H]2C(=O)N[C@H](C(=O)N[C@@H](CCCNC(=N)N)C(N)=O)C(C)C)NC(=O)[C@H](CCCNC(=N)N)NC(=O)[C@H](Cc2c[nH]c3ccccc23)NC(=O)[C@H](Cc2ccc(O)cc2)NC1=O)C(C)C)C(C)C (Ac-LKRVWKRVFKKLK[S5]YWR[S5]LKKPVR-NH2; staple (Z) 14-18) | 38 (≈ 11.7 µM) | 10.1 (≈ 3.11 µM) | 5 (≈ 1.54 µM) | 4.7 (≈ 1.45 µM) | 35.2
CC(=O)N[C@@H](CC(C)C)C(=O)N[C@@H](CCCCN)C(=O)N[C@@H](CCCNC(=N)N)C(=O)N[C@H](C(=O)N[C@@H](Cc1c[nH]c2ccccc12)C(=O)N[C@@H](CCCCN)C(=O)N[C@@H](CCCNC(=N)N)C(=O)N[C@H](C(=O)N[C@@H](Cc1ccccc1)C(=O)N[C@@H](CCCCN)C(=O)N[C@@H](CC(C)C)C(=O)N[C@@H](CCCCN)C(=O)N[C@@H](CCCCN)C(=O)N[C@@]1(C)CCC/C=C\CCC[C@@](C)(C(=O)N[C@@H](CC(C)C)C(=O)N[C@@H](CCCCN)C(=O)N[C@@H](CCCCN)C(=O)N2CCC[C@H]2C(=O)N[C@H](C(=O)N[C@@H](CCCNC(=N)N)C(N)=O)C(C)C)NC(=O)[C@H](CCCNC(=N)N)NC(=O)[C@H](Cc2c[nH]c3ccccc23)NC(=O)[C@H](Cc2ccc(O)cc2)NC1=O)C(C)C)C(C)C (Ac-LKRVWKRVFKLKK[S5]YWR[S5]LKKPVR-NH2; staple (Z) 14-18) | 38 (≈ 11.7 µM) | 10.1 (≈ 3.11 µM) | 5 (≈ 1.54 µM) | 4.7 (≈ 1.45 µM) | 70.1

From ChEMBL document CHEMBL6153110, “Peptide Double-Stapling and Arginine N-Glycosylation Triggered the Development of Therapeutic Antimicrobial Peptides Capable of Killing Drug-Resistant Bacteria in Mice” (J Med Chem, 2025)
